# Measured values published in patent publication US8821888B2, “Xylogone ganodermophthora strain with antifungal activity, and composition including same for preventing plant diseases” (The Director of Chungcheongbuk-Do Agricultural Research and …, priority 2013, dated 2014).
# Test system: Sphaerotheca fusca
# Assay: Control effect of sprayed extract on leaves of cucurbitaceous crops infected with Sphaerotheca fusca
# Format: in vivo
# Conditions: 4,000 fold dilution, 7 days after spray
# Experimental: The control effects of the extract of the cultured H55 strain prepared in Example 1 were measured. […] The extract was sprayed once at the initial stage of the development of Sphaerotheca fusca, and at 7 days after the spray of the extract, the control effect of the extract for each crop was measured.
compound,measurement,setting,value
CCCOC/C(=N\c1ccc(Cl)cc1C(F)(F)F)n1ccnc1 [Triflumizole],Control value,Cucumbers,83.3
same,Diseased leaf area,Cucumbers,10%
same,Control value,Melons,42.9
same,Diseased leaf area,Melons,40%
same,Control value,Oriental melons,80.0
same,Diseased leaf area,Oriental melons,10%
same,Control value,Pumpkins,62.5
same,Diseased leaf area,Pumpkins,30%
